Several values for one entry are separate records, joined by “and”; a condition that tells them apart may be missing. Equal entries are not always repeated. Where two headings read alike, the source gives them in different places.
Experiments:
[1] = tested on: PBMCs; experiment: Cell viability by trypan blue staining after 24 hours; format: cell-based, human; conditions: for Viability (dose-response): 1 participant per drug, in % (unit assumed); for Cell viability (in words): initial screening concentrations, Figure 1A
Procedure: (§1) Figure 1 Screening of candidate LPAs by measuring the change in multiply spliced HIV transcripts after activation. Each drug was tested in PBMCs from 2 ART-suppressed study participants (denoted in the legend by varying symbol shapes). PBMCs were aliquoted into wells at 6 × 10^6 cells/well. After activation, the cells were cultured with antiretrovirals in the presence of individual drugs in DMSO or DMSO alone as control. All conditions were tested in the presence of CD3/28 T cell–activating beads, except for the unactivated DMSO condition. (A) After 24 hours, the viability was measured by trypan blue staining and then normalized to the levels of the activated DMSO (% of activated DMSO). Bars indicate medians. (B) Total cellular RNA was extracted, and the levels of multiply spliced HIV transcripts (TatRev) were measured by RT-ddPCR, normalized to 1 μg of total cellular RNA, and expressed as a percentage of the activated DMSO control (% of activated DMSO). RT-dd, reverse transcription digital droplet; vRNA, viral RNA; HAT, histone acetyltransferase.
(§2) For quantification of cell-associated HIV transcripts, PBMCs were harvested either after 24 hours or after 6 days. The cell viabilities were measured by trypan blue staining; then the cells were pelleted by centrifuging at 300g for 6 minutes and stored at –80°C. For quantification of virion-associated HIV RNA, cell culture supernatant was collected from 6 × 10^6 PBMCs that were treated and activated for 6 days as described above. Residual cells and cellular debris were subsequently removed from the supernatant by differential centrifugation (300g for 6 minutes, then 20,000g for 10 minutes), and the supernatant was stored at –80°C.

[2] = tested on: PBMCs; format: cell-based, human; conditions: 6 days after αCD3/28 activation, each row one participant
Procedure: Next, we evaluated the ability of the candidate LPAs to sustain the inhibitory effects during a prolonged ex vivo culture. To this end, PBMCs were cultured in the presence of individual drugs in DMSO or in DMSO alone as control, activated (anti-CD3/CD28), and harvested after 6 days. […] However, we decided to test the drug on day 6 because extra cells were available from some study participants.
as §2
A) After six days, the viability was measured by trypan blue staining and then normalized to the levels of the activated DMSO (% of activated DMSO). Bars indicate medians and different colors indicate individual study participants. B-F) Each drug was tested in PBMCs from at least six ART-suppressed study participants (except for KRIBB11, n=5) and the PBMCs were aliquoted into wells at 6x10^6 cells/well. After activation, the cells were cultured with antiretrovirals in the presence of individual drugs in DMSO or DMSO alone as control. After six days, total RNA was extracted and the progression through different stages of HIV transcription was (1 picture or pasted object on this page, not shown here)

[3] = tested on: HIV transcripts (TAR, LLTR, Pol, PolyA, TatRev); experiment: Latency reversal assay: cell-associated HIV transcripts (RT-ddPCR) 24 hours after anti-CD3/CD28 activation of PBMCs from ART-suppressed PWH; format: cell-based; parameters: Elongated (LLTR) HIV transcripts, median relative to activated DMSO, initial screening / Midtranscribed (Pol) HIV transcripts, median relative to activated DMSO, initial screening / Multiply spliced (TatRev) HIV transcripts, median relative to activated DMSO, initial screening: concentration or dose not given beside the values; conditions: for HIV transcriptional elongation, ratio LLTR/TAR: Figure 3B
Procedure: We selected 26 small molecules targeting pathways implicated in HIV transcription or the blocks to HIV transcription underlying latency (Supplemental Table 1). […] Initial screening of all drugs was performed in freshly isolated PBMCs from 2 ART-suppressed individuals (Figure 1 and Supplemental Figure 2). PBMCs were cultured in the presence of individual drugs in DMSO or DMSO alone as a control, subsequently activated (anti-CD3/CD28), and harvested after 24 hours. […] The progression through different blocks to HIV transcription was quantified by measuring the levels of initiated (TAR), 5′ elongated (LLTR), midtranscribed/unspliced (Pol), completed (PolyA), and multiply spliced (TatRev) HIV transcripts. The levels of those HIV transcripts were normalized to 1 μg of total cellular RNA (to normalize for the effect of the drug on global cellular transcription) and expressed as a percentage of the activated DMSO control.
as §1
The ability of our candidate LPAs to inhibit HIV transcriptional progression after activation was examined in PBMCs from a minimum of 7 PWH per drug tested (Figure 3). PBMCs were cultured in the presence of individual drugs in DMSO or in DMSO alone as a control, subsequently activated (anti-CD3/CD28), and harvested after 24 hours.
Each drug was tested in PBMCs from 7 ART-suppressed study participants. The PBMCs were aliquoted into wells at 6 × 10^6 cells/well. After activation, the cells were cultured with antiretrovirals in the presence of individual drugs in DMSO or DMSO alone as control. All conditions were tested in the presence of CD3/28 T cell–activating beads, except for the unactivated DMSO condition. After 24 hours, total RNA was extracted, and the progression through different stages of HIV transcription was quantified by measuring the levels of initiated (TAR), 5′ elongated (LLTR), midtranscribed/unspliced (Pol), completed (PolyA), and multiply spliced (TatRev) HIV transcripts. (A) The levels of all HIV transcripts were normalized to 1 μg of total cellular RNA and expressed as a percentage of the activated DMSO control (% of activated DMSO). Medians are shown as well as the individual values per study participant in different colors. (B–D) The effect of each drug on HIV transcriptional progression after activation was analyzed by the ratio of one HIV transcript to another. Ratios are independent of HIV infection frequency or normalization to cell numbers. Shown are the proportion of (B) all HIV transcripts that were elongated (LLTR/TAR), (C) elongated HIV transcripts that were completed spliced (PolyA/LLTR), and (D) completed transcripts that were multiply spliced (TatRev/PolyA).

[4] = 24 hours, compared with activated DMSO
[5] = initial screening, 2 participants, 24 hours, Supplemental Figure 2

SMILES	Viability (dose-response) ([1]; dose 5 µM)	Viability (dose-response) ([1]; dose 10 µM)	Viability (Fig 1A) ([1]; study participant 150a)	Viability (Fig 1A) ([1]; study participant 152)	Cell viability (DMSO αCD3/28 = 100) ([2]; 5μM)	HIV transcriptional elongation, ratio LLTR/TAR [3, 4]	Elongated (LLTR) HIV transcripts, median relative to activated DMSO, initial screening [3, 5] [%]	Midtranscribed (Pol) HIV transcripts, median relative to activated DMSO, initial screening [3, 5] [%]	Viability (Fig 1A) ([1]; study participant 150b)	Viability (Fig 1A) ([1]; study participant 2147b)	HIV transcriptional completion, ratio PolyA/LLTR ([3]; 24 hours, compared with activated DMSO, Figure 3C)	HIV multiple splicing, ratio TatRev/PolyA ([3]; 24 hours, compared with activated DMSO, Figure 3D)	Decrease in initiated TAR transcripts ([3]; after activation, relative to activated DMSO)	Multiply spliced (TatRev) HIV transcripts, median relative to activated DMSO, initial screening ([3]; initial screening, 2 participants, 24 hours, Figure 1B, Supplemental Figure 2) [%]	Cell viability (in words) [1]	Cell viability (DMSO αCD3/28 = 100) ([2]; 25-50nM)	Cell viability (DMSO αCD3/28 = 100) ([2]; 25μM)
O=c1c(O)c(-c2ccc(O)c(O)c2)oc2cc(O)cc(O)c12 [quercetin]	87.619	77.686	100.02 % of activated DMSO	90.16 % of activated DMSO	74.1 and 98.05 and 112.6 and 106 and 105.8												
C=CCNC1=C2C[C@@H](C)C[C@H](OC)[C@H](O)[C@@H](C)/C=C(\C)[C@H](OC(N)=O)[C@@H](OC)/C=C\C=C(/C)C(=O)NC(=CC1=O)C2=O [tanespimycin]					119.92 and 93.07 and 93.65 and 100.43 and 91.95 and 100.9 and 116.6	inhibited	49	31	104.931 % of activated DMSO	92.78 % of activated DMSO							
CC(C)[C@]12O[C@H]1[C@@H]1O[C@]13[C@]1(O[C@H]1C[C@H]1C4=C(CC[C@@]13C)C(=O)OC4)[C@@H]2O [triptolide]						no impact	21	9	96.4057 % of activated DMSO	91.51 % of activated DMSO	reduced completion	reduce HIV multiple splicing	more than 95%	0	impact on cell viability	81.87 and 92.51 and 90.83 and 106.88 and 80.32 and 104.1	
COc1ccc(-c2cc(=O)c3c(O)cc(O)c(-c4cc(-c5cc(=O)c6c(O)cc(O)cc6o5)ccc4OC)c3o2)cc1 [isoginkgetin]			88.97 % of activated DMSO	84.74 % of activated DMSO											impact on cell viability		120.3 and 106.36 and 93.99 and 112.22 and 91.65 and 74.9 and 87.5 and 124.6
